We go through 17 molecules from ChEMBL document CHEMBL1201862, “PubChem BioAssay data set” (2004).

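Step 1: Grow cells in 96-well plates. Step 2: Expose to compound for 48 hours at 5 concentrations. Step 3: Interpolate endpoints linearly; if unreached, use highest concentration. The concentration for 50% growth inhibition is given as GI50.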 Calls of active or inactive are those of the source. Rule as the data show it: active = GI50 up to about 1.1 µM and inactive = higher.

Common to all, as to assay: growth of human tumour cells (NCI), 48 h
Assay [1] relates to LXFL 529.
In assay [2] the test system is DMS-114.
Assay [3] has as its system SNB-78.
Assay [4] concerns DMS-273.
Assay [5] concerns KM-20L2.
Assay [6] has as its system DLD-1.
Assay [7] concerns M19-MEL.
Assay [8] concerns RXF 631.
The subject of assay [9] is XF498.

As for `COC(=O)c1c(OC(=O)c2ccccc2)noc1CC(=O)OC1C=CCCC1` (stereo unspecified), the GI50 in assay [1] was 58.7 µM (inactive); in assay [2], 38.5 µM (inactive); in assay [3], > 100 µM (inactive); in assay [4] it was > 100 µM (inactive); in assay [5], > 100 µM (inactive); in [6], > 100 µM (inactive).
`CC1=C(c2cc(C(=O)Nc3cc(C)ccc3C)nc(N)n2)Sc2ccccc2N1`: the GI50 in assay [7], in assay [1], in assay [2], in assay [3], in assay [4] and in [8] was > 100 µM (inactive) throughout. Further, the GI50 in assay [5] and in assay [6] was > 100 µM (inactive) in each case.
Turning to `COC1=CC(=Nc2c(Cl)cc(Cl)cc2OC(=O)c2ccc([N+](=O)[O-])cc2)C=C(OC)C1=O`, the GI50 in assay [7] was 3.41 µM (inactive); in assay [1] it was 5.78 µM (inactive); in assay [9], 8.39 µM (inactive); in [2], 3.79 µM (inactive); in [3] it was 23.3 µM (inactive); in assay [4], 13.6 µM (inactive). Besides, the figures for the GI50 in assay [8], in assay [5] and in [6] were 4.51 µM (inactive), 17.7 µM (inactive) and 12.4 µM (inactive), respectively.
In the case of `C/N=C1\CC2c3cc(OC)c(OC)cc3CCN2C2=C1C(=O)CC(C)(C)C2` (stereo unspecified), the GI50 in assay [7], in assay [1], in [2], in assay [3], in [4] and in assay [5] was > 100 µM (inactive) in each case. Besides, the GI50 in [6] is > 100 µM (inactive).
`C=C1C(=O)O[C@@H]2C[C@@H](C)[C@@H]3C=CC(=O)[C@@]3(C)[C@@H](O)[C@H]12` [HELENALIN]: the GI50 in assay [7] was 2.82 µM (inactive); in [1], 0.493 µM (active); in assay [2] it was 1.45 µM (inactive); in assay [4], 1.53 µM (inactive); in assay [5], 1.73 µM (inactive); in assay [6], 0.557 µM (active).
Turning to `COc1cc2c(c(OC)c1OC)-c1ccc(SC)c(=O)cc1C(NC(=O)c1ccccc1)CC2` (stereo unspecified), the GI50 in assay [1] was < 0.01 µM (active); in assay [9], < 0.0601 µM (active); in assay [3] it was < 0.01 µM (active); in assay [4] it was < 0.01 µM (active); in assay [5] it was < 0.01 µM (active); in [6], < 0.01 µM (active).
Consider `CC(C)=C1CCC(CN2CCOCC2)C1=O` (stereo unspecified), for which the GI50 is 22.1 µM (inactive) in assay [7]; 2.38 µM (inactive) in assay [1]; 12.7 µM (inactive) in [9]; 7.89 µM (inactive) in assay [2]; 9.38 µM (inactive) in [3]; 9.23 µM (inactive) in [8]. In addition, the GI50 in assay [5] is 16.4 µM (inactive); in assay [6] it was 4.38 µM (inactive).
Consider `CCOc1ccccc1/N=C(/NC(=O)CC)SC`, for which the GI50 in [7], in assay [1], in assay [2], in [3], in assay [4] and in [8] was > 10 µM (inactive) each time. Moreover, the GI50 is > 10 µM (inactive) in assay [5] and 88.3 µM (inactive) in assay [6].
For `O=c1/c(=C/c2cccc3ccccc23)sc2nc3ccccc3n12`, the GI50 in assay [7], in assay [1], in [2], in [3], in [4] and in [8] was > 100 µM (inactive) throughout. Further, the GI50 in [5] and in assay [6] was > 100 µM (inactive) each time.
As for `COC(=O)Nc1nc2cc(Br)ccc2[nH]1`, the GI50 is 28.8 µM (inactive) in assay [7]; 47.2 µM (inactive) in assay [1]; 23.6 µM (inactive) in assay [9]; 23.1 µM (inactive) in assay [2]; 42.4 µM (inactive) in assay [3]; 16 µM (inactive) in assay [4]. In addition, the results for the GI50 in assay [5] and in assay [6] were 21.2 µM (inactive) and 42.3 µM (inactive), respectively.
Turning to `Cc1ccc([N+](=O)[O-])cc1NC(=O)/C(=N/NC(=S)NN)C1SC(=S)NC1=O` (stereo unspecified), the GI50 in [1], in [9], in assay [2], in assay [3], in assay [4] and in [5] was > 100 µM (inactive) throughout. Besides, the GI50 in [6] was > 100 µM (inactive).
`CCn1c2c(c3ccccc31)[C@@H](c1ccc(Cl)cc1)CC1C(=O)N(c3ccccc3)C(=O)C21` (stereo partly specified): the GI50 is > 100 µM (inactive) in assay [7]; > 100 µM (inactive) in assay [1]; 64.6 µM (inactive) in assay [9]; 46.8 µM (inactive) in assay [2]; 26.4 µM (inactive) in [3]; > 100 µM (inactive) in assay [4]. For the same molecule, the GI50 in assay [5] and in assay [6] was > 100 µM (inactive) each time.
With `C=CCOC(=O)C1CCC(=O)N1C(=O)C(Cl)Cl` (stereo unspecified), the GI50 in [7] was > 100 µM (inactive); in [1] it was > 100 µM (inactive); in [9] it was 17.7 µM (inactive); in assay [2], > 100 µM (inactive); in assay [3], > 100 µM (inactive); in assay [4], > 100 µM (inactive). The GI50 in assay [5] and in assay [6] was > 100 µM (inactive) throughout.
As for `O=C(CC1(O)C(=O)Nc2ccccc21)c1ccc(Cl)c(Cl)c1` (stereo unspecified), the GI50 was 77.4 µM (inactive) in assay [7]; > 100 µM (inactive) in assay [1]; > 100 µM (inactive) in [2]; 97.3 µM (inactive) in assay [3]; > 100 µM (inactive) in [4]; > 100 µM (inactive) in [5]. Besides, in [6], the GI50 was > 100 µM (inactive).
As for `CC1=Cc2cccc(C)c2C(=O)C1=O` [O-HIBISCANONE], the GI50 in assay [7] is 7.67 µM (inactive); in assay [1], 2.11 µM (inactive); in assay [9] it was 5.2 µM (inactive); in [3] it was 26 µM (inactive); in assay [4] it was 19.9 µM (inactive); in assay [5], 18.9 µM (inactive). The GI50 in [6] is 2.13 µM (inactive).
`NN/C(Cc1ccccc1)=N\NO`: the GI50 in assay [7] is > 100 µM (inactive); in [1], 55.1 µM (inactive); in [2], 25.5 µM (inactive); in assay [4], > 100 µM (inactive); in [8], 32.2 µM (inactive); in assay [5], 32.5 µM (inactive). Besides, the GI50 in assay [6] is > 100 µM (inactive).
As to `CC[C@@H]1C[C@H]2CC3c4[nH]c5ccc(O)cc5c4CCN(C2)C31`, the GI50 in [7], in [1], in assay [9], in [2], in assay [3] and in assay [4] was > 100 µM (inactive) each time. Moreover, the GI50 in assay [8] and in assay [5] was > 100 µM (inactive) in each case.
